According to US20090214600A1, “METHODS AND COMPOSITIONS FOR GASTRIC RESISTANT ORAL FORMULATIONS FOR INTESTINAL DELIVERY” (priority 2008, published 2009):
Several values for one entry are separate records, joined by “and”; a condition that tells them apart may be missing. Identical values can stand only once. Like-named read-outs stand apart in the source and are kept apart here.

How the values were obtained:
[1] = Rabbit plasma Ceftriaxone concentration after oral administration of oral formulations (HPLC); assay type: in vivo; settings: oral formulation, 40-80 mg Ceftriaxone, one line per animal (001-005)
Procedure: Oral Ceftriaxone formulations were administered to rabbit test subjects through a formulation delivery tube to permit oral administration, illustrative of the same absorption processes as the human stomach and intestines. Rabbits were dosed at a Ceftriaxone load of 40-80 mg depending upon body weight. Rabbits were dosed with all five oral Ceftriaxone formulations and absorption data collected by HPLC analysis of plasma Ceftriaxone concentrations from the heparinized rabbit plasma specimen. Blood draws were collected at pre-determined intervals of time, spun down to separate serum, and serum was removed and frozen prior to delivery to Clinical Pathology Laboratories in Oklahoma City, Okla.

[2] = Rabbit plasma Ceftriaxone concentration after IV administration (control); assay type: in vivo
[3] = single dose IV, 1.0 g, cited from earlier work
[4] = single dose IM, 1.0 g, cited from earlier work
[5] = in vivo; cited from earlier work
[6] = cited from earlier work

## CO/N=C(\C(=O)N[C@@H]1C(=O)N2C(C(=O)O)=C(CSc3nc(=O)c(=O)[nH]n3C)CS[C@H]12)c1csc(N)n1 [Ceftriaxone, Ceftriaxone sodium]
[1]; 0.00 Hours
  Study Sample Concentration: BLQ (BLQ = Below Limit of Quantitation (<1.00 mcg/mL))
[1]; 0.5 Hours
  Study Sample Concentration: 40.194 µg/mL and 31.84 µg/mL and 110.88 µg/mL and 143.15 µg/mL and 35.69 µg/mL
[1]; 1.0 Hours
  Study Sample Concentration: 27.41 µg/mL and 21.71 µg/mL and 75.60 µg/mL and 97.60 µg/mL and 24.33 µg/mL
[1]; 2.0 Hours
  Study Sample Concentration: 18.27 µg/mL and 14.47 µg/mL and 50.40 µg/mL and 65.07 µg/mL and 16.22 µg/mL
[1]; 4.0 Hours
  Study Sample Concentration: 7.31 µg/mL and 5.79 µg/mL and 20.16 µg/mL and 26.03 µg/mL and 6.44 µg/mL
[1]; 6.0 Hours
  Study Sample Concentration: 5.48 µg/mL and 4.34 µg/mL and 15.12 µg/mL and 19.52 µg/mL and 4.87 µg/mL
[2]; animal 006, 0.00 Hours
  Plasma Concentration of Ceftriaxone Over Time After IV Administration: BLQ (BLQ = Below Limit of Quantitation (<1.00 mcg/mL))
[2]; animal 006, 0.5 Hours, read-out: Plasma Concentration of Ceftriaxone Over Time After IV Administration
  concentration at 0.5 h: 198 µg/mL
[2]; animal 006, 1.0 Hours, read-out: Plasma Concentration of Ceftriaxone Over Time After IV Administration
  concentration at 1 h: 136 µg/mL
[2]; animal 006, 2.0 Hours, read-out: Plasma Concentration of Ceftriaxone Over Time After IV Administration
  concentration at 2 h: 90.8 µg/mL
[2]; animal 006, 4.0 Hours, read-out: Plasma Concentration of Ceftriaxone Over Time After IV Administration
  concentration at 4 h: 36.4 µg/mL
[2]; animal 006, 6.0 Hours, read-out: Plasma Concentration of Ceftriaxone Over Time After IV Administration
  concentration at 6 h: 27.3 µg/mL
[3]; 0.5 hr
  Plasma Concentrations: 151 µg/mL
[3]; 1 hr
  Plasma Concentrations: 111 µg/mL
[3]; 2 hr
  Plasma Concentrations: 88 µg/mL
[3]; 4 hr
  Plasma Concentrations: 67 µg/mL
[3]; 6 hr
  Plasma Concentrations: 53 µg/mL
[3]; 8 hr
  Plasma Concentrations: 43 µg/mL
[3]; 12 hr
  Plasma Concentrations: 28 µg/mL
[3]; 16 hr
  Plasma Concentrations: 18 µg/mL
[3]; 24 hr
  Plasma Concentrations: 9 µg/mL
[4]; 0.5 hr
  Plasma Concentrations: 40 µg/mL
[4]; 1 hr
  Plasma Concentrations: 68 µg/mL
[4]; 2 hr
  Plasma Concentrations: 76 µg/mL
[4]; 4 hr
  Plasma Concentrations: 68 µg/mL
[4]; 6 hr
  Plasma Concentrations: 56 µg/mL
[4]; 8 hr
  Plasma Concentrations: 44 µg/mL
[4]; 12 hr
  Plasma Concentrations: 29 µg/mL
[5]
  dose excreted as unchanged drug in the urine: 33-67%
[6]; ethanol
  solubility in ethanol: slightly soluble
[6]; methanol
  solubility in methanol: sparingly
[6]; water
  solubility in water: readily soluble
